Patent US8951541B2, “Method of modifying dissolution rate of particles by addition of hydrophobic nanoparticles” (3M Innovative Properties Company, priority 2010, dated 2015)

Experiment: Rate of dissolution of acetaminophen and acetaminophen/nanoparticle mixtures in DIW by UV/Vis absorbance at 243 nm
Type: physicochemical
Details: 0.013 g in 1000 mL DIW
Description: The following procedure (similar to USP30-NF 25, Mar. 17, 2008) was used to measure the rate and intensity of dissolution of acetaminophen and acetaminophen/nanoparticle mixtures in Millipore H2O (i.e., DIW).
Three samples of acetaminophen were weighed out. One sample was used as a control sample (Comparative K). A pre-determined amount of surface modified nanoparticles were added to each of the other samples. Sample 14 was combined with 1 weight percent nanoparticles (0.013 g) and sample 15 was combined with 0.5 weight percent nanoparticles (0.0065 g). Each blended sample was prepared by adding the nanoparticles to the acetaminophen. […]
Each blended sample was then measured separately by adding to different glass beakers, each of which contained 1000 mL of DIW and a magnetic stir-bar. […] 0.013 g of the blended samples were measured out and added to the stirred DIW.
While the acetaminophen was being dissolved in the DIW, 1.5 mL samples of the DIW and acetaminophen mixtures were removed every two minutes by pipette. The UV/Vis spectra of the samples were immediately measured using a UV/Vis spectrophotometer (obtained from PerkinElmer, Waltham, Mass., under the trade designation “LAMBDA 35 UV/VIS SPECTROPHOTOMETER), specifically focusing on the 243 nm absorbance.
This was determined to be the final measured value needed for subsequent experiments. […]

In the case of CC(=O)Nc1ccc(O)cc1 [Comparative K, acetaminophen], the “absorbance intensity at 243 nm (final measured value)” value (stirred, plateau value) is reported as “approximately 0.86” and the Slope (slope between first two time points: change in absorbance at 243 nm/change in time, in seconds) is reported as 0.0029.
